Experimental data as given in US10472635B2, “Methods of treating brain edema” (priority 2015, dated 2019).
Read-outs that look alike come from different tables or passages of the source.

What was measured:
[1] = test system: neuronal [Na^+]i in brain slices; assay: Neuronal [Na+]i by CoroNa Green fluorescence / two-photon FLIM; format: cell-based, rat
[2] = test system: cortical neurons in brain slices; assay: Neuronal swelling imaging assay in brain slices (cross sectional area of CoroNa-stained soma, two-photon); format: cell-based, rat; conditions: for magnitude of neuronal swelling: veratridine-induced, blockers present, without vs with pre-applied picrotoxin (100 μM)
rat hippocampal slices = assay: LDH release cell death assay in hippocampal slices; format: cell-based; conditions: for effect on veratridine-induced cell death (LDH release): 50 μM veratridine
[3] = test system: voltage-dependent Cl^− current in layer 4 cortical neurons; assay: Whole-cell voltage clamp of depolarization-activated Cl- current; format: cell-based, rat; conditions: depolarization to −20 mV or greater; cocktail of channel blockers; GlyH-101 by dialysis
Procedure: Electrophysiology: Whole-cell recordings were performed in the presence of antagonists of GABAA (10 μM picrotoxin), AMPA/kainite (10 μM 6-cyano-7-nitoquinoxaline-2,3-dione—CNQX), and NMDA (2R-amino-5-phosphonovaleric acid—APV) receptors. 60 μM cadmium, 50 μM nickel and 100 μM 4AP (4-aminopyridine) were used to block voltage-gated calcium channels and A-type potassium channels. Whole-cell voltage-clamp recordings from cortical neurons were carried out at room temperature while the recording chamber was perfused with ACSF at 1-1.5 ml min-1. Recordings were made using a MultiClamp 700B amplifier controlled by Clampex 10.2 via a Digidata 1440A data acquisition system with 3-5M ? glass electrodes. The pipette solution containing (in m ? ): 108 CsCl, 8 TEA-Cl, 8 NaGluc, 1 CsEGTA, 4 K-ATP, 0.3 Na-GTP, 10 Hepes, 2MgCl2 (pH 7.2 with CsOH, 286 mosmol 1-1). Normal ACSF contained (in mM): 126 NaCl, 26 NaHCO3, 10 glucose, 2 MgCl2, 1.25 NaH2PO4, 2.5 KCl, 2.0 CaCl2 (pH 7.25, 310 mosmol 1-1). NaCl was replaced with 126 mM Na-isethionate in the low-chloride ACSF. Recordings where the series resistance varied more than 10% were rejected. Data were analyzed with Clampfit 10.0.
The opening of Na^+ permeable channels causes both [Na^+]i accumulation and neuronal depolarization. […] However progressive accumulation of extracellular K^+ could lead to further depolarization of the membrane. […]

Maxi-Anion Channel = conditions: cited from earlier work
CLC-2 = CLC-2 (Homo sapiens, UniProt P51788); conditions: cited from earlier work
CLC-2, sequence (P51788 whole entry): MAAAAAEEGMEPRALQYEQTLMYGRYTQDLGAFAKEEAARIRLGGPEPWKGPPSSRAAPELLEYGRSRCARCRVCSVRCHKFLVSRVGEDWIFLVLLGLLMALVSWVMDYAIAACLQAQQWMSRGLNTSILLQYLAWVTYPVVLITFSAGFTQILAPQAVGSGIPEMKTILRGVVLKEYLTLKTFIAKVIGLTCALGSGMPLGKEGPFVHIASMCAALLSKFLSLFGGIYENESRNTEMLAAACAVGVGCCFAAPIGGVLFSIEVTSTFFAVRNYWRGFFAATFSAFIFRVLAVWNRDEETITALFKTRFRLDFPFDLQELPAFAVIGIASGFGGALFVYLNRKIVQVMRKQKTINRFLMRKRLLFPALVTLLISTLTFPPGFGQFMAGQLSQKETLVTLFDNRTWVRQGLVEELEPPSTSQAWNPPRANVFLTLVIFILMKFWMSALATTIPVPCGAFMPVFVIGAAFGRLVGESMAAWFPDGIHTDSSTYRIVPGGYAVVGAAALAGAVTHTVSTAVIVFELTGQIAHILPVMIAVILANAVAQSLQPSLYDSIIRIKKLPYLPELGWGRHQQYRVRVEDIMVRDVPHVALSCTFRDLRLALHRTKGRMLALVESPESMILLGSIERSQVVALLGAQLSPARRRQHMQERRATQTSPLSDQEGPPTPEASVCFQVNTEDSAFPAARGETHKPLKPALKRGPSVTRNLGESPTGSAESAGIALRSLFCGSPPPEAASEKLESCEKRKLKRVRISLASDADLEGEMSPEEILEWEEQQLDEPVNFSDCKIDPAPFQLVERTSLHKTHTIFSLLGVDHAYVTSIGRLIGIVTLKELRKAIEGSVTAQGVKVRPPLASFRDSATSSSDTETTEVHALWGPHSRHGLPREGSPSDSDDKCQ

Pannexins, Connexins = conditions: cited from earlier work
CaCC = conditions: cited from earlier work
VRAC = conditions: cited from earlier work
NKCC1 = target: T1, NKCC1 (Homo sapiens, UniProt P55011); conditions: cited from earlier work
T1 sequence (P55011 1-1212): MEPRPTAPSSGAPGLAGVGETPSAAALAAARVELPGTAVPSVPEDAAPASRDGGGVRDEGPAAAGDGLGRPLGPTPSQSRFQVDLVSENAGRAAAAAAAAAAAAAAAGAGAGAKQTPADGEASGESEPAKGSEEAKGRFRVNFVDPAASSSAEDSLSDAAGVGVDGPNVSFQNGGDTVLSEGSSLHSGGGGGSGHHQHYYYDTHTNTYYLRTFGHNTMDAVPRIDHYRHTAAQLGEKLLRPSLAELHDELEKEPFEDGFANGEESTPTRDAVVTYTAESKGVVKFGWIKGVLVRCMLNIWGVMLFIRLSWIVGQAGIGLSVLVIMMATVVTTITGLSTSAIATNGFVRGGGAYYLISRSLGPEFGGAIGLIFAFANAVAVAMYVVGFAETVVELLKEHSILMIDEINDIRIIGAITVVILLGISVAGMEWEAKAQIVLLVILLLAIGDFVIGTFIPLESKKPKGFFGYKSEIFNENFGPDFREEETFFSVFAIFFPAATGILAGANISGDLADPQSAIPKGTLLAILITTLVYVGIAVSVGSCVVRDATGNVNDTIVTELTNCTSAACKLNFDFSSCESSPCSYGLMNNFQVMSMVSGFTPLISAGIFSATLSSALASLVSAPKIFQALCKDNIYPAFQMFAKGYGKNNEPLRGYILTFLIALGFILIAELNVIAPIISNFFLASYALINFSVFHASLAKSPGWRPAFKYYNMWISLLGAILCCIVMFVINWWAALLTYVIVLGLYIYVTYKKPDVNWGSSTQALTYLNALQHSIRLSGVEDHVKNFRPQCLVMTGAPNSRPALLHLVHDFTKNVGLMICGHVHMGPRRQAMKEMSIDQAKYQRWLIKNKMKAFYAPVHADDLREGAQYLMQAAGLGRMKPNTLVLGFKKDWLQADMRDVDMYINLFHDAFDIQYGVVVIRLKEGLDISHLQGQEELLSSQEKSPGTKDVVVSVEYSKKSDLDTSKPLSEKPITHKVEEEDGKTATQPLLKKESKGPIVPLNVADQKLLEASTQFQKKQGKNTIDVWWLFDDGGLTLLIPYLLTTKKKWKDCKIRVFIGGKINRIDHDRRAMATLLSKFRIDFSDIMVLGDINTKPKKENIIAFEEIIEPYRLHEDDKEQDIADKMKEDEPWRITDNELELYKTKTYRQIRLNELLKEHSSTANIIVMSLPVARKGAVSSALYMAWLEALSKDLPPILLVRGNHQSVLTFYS

KCC2 = target: T2, KCC2 (Homo sapiens, UniProt Q9H2X9); conditions: cited from earlier work
T2 sequence (Q9H2X9 1-1139): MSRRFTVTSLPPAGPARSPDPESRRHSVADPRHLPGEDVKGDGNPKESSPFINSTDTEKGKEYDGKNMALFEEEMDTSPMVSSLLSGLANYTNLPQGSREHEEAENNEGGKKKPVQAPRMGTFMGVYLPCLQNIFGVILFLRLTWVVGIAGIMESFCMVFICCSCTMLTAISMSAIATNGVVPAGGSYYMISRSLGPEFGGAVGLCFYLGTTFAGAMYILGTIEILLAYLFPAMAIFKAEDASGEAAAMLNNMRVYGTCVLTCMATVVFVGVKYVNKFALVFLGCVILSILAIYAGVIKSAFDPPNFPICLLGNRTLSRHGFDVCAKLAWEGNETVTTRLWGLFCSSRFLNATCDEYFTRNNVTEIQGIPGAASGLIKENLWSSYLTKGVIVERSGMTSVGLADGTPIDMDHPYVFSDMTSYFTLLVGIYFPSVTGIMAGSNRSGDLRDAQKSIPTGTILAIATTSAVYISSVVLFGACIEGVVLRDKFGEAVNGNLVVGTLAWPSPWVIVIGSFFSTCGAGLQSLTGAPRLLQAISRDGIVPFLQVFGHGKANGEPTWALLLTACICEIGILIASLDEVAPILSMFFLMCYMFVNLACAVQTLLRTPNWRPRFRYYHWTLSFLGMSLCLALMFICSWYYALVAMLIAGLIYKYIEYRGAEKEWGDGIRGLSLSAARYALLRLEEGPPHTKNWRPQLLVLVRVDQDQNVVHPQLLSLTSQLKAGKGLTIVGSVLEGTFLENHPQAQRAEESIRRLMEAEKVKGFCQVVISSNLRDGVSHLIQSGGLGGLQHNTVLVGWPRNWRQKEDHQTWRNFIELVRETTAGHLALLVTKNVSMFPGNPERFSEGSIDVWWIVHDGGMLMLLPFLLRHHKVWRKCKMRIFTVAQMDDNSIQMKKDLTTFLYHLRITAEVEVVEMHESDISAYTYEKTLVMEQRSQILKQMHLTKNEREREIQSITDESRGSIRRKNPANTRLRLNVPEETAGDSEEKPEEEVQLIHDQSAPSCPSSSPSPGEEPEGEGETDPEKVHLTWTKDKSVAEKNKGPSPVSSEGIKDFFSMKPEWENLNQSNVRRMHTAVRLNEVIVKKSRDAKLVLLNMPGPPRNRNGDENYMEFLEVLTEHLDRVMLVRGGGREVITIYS

[4] = pressure ejection, Cd2+, CNQX, picrotoxin present, d-APV with veratridine, TTX with NMDA
[5] = 22-24 °C, antagonist bath applied and in puffing pipette, DIDS 250 μM, NPPB 200 μM, TTX 1 μM

Molecule: CN[C@H](CC(=O)O)C(=O)O [NMDA, N-Methyl-D-aspartic acid]
- change in neuronal [Na+]i on application [1, 4]: significant increase
- neuronal cross sectional area after NMDAR activation ([2]; extracellular Ca2+ free solution (0 mM Ca2+, 2 mM EGTA), TTX, Cd2+, CNQX, picrotoxin present): 161.60±10.55 % of baseline
- neuronal cross sectional area after NMDAR activation ([2]; extracellular Na+ replaced with NMDG (152 mM to 26 mM), normal Ca2+): 86.7 % of baseline
- change in neuronal cell volume on application [2, 4]: increase in neuronal cell volume
- LDH release (cell death) on application (rat hippocampal slices; 15 min application, LDH after 90 min, veratridine 50 μM, NMDA 100 μM in 0 mM Ca2+, 2 mM EGTA, CNQX, picrotoxin, Cd2+ present): rapid and significant increase

Molecule: picrotoxin
- magnitude of neuronal swelling [2]: 146.9%

Molecule: NC1=N[C@H](O)[C@H]2[C@H]3O[C@]4(O)O[C@@H]([C@@H](O)[C@@]2(N1)[C@@H]4O)[C@]3(O)CO [TTX, Tetrodotoxin]
- effect on veratridine-induced [Na+]i increase [1]: blocked
- effect on veratridine-induced neuronal swelling [2]: blocked

Molecule: O=C(CNc1ccc2ccccc2c1)N/N=C/c1cc(Br)c(O)c(Br)c1O [GlyH-101]
- effect on veratridine-induced neuronal swelling [2, 5]: profoundly inhibited
- effect on non-inactivating Cl- current elicited by depolarization [3]: inhibit
- effect on veratridine-induced cell death (LDH release) (rat hippocampal slices): profoundly inhibited

Molecule: N[C@H](CCCP(=O)(O)O)C(=O)O [d-APV, 2R-amino-5-phosphonovaleric acid]
- effect on NMDA-induced [Na+]i increase ([1]; CoroNa signal, d-APV 100 μM): blocked
- effect on NMDA-induced neuronal swelling ([2]; DIDS 250 μM, 500 μM, 1 mM, d-APV 100 μM): blocked

Molecule: [Gd+3] [Gd^3+]
- concentration (antagonist sensitivity of channel/transporter) (Maxi-Anion Channel): 30 to 50 µM

Molecule: [Zn] [Zinc]
- concentration (antagonist sensitivity of channel/transporter) (CLC-2): 100 µM

Molecule: CC1(C)[C@@H](OC(=O)CCC(=O)O)CC[C@]2(C)[C@H]3C(=O)C=C4[C@@H]5C[C@@](C)(C(=O)O)CC[C@]5(C)CC[C@@]4(C)[C@]3(C)CC[C@@H]12 [CBX, carbenoxelone]
- concentration (antagonist sensitivity of channel/transporter) (Pannexins, Connexins): 100 µM

Molecule: COc1ccc(C(=O)O[C@H]2CC[C@@]3(C)[C@@H]4CC[C@H]5[C@]6(O)C[C@H](O)[C@@]7(O)[C@@H](CN8C[C@@H](C)CC[C@H]8[C@@]7(C)O)[C@]6(O)C[C@@]53O[C@]24O)cc1OC [veratridine]
- [Na+]i (calibrated value, CoroNa FLIM) ([1]; throughout veratridine application): approximately 94.46±2.14 mM
- magnitude of neuronal swelling [2]: 161.7%

Molecule: O=C(O)c1cc([N+](=O)[O-])ccc1NCCCc1ccccc1 [NPPB]
- concentration (antagonist sensitivity of channel/transporter) (Maxi-Anion Channel): 100 µM
- concentration (antagonist sensitivity of channel/transporter) (CaCC): 100 µM
- effect on veratridine-induced neuronal swelling [2, 5]: no protection
- effect on veratridine-induced cell death (LDH release) (rat hippocampal slices): no effect
- effect on NMDA-induced cell death (LDH release), Ca2+-independent (rat hippocampal slices; NMDA in Ca2+ free extracellular solution): blocked by DIDS but not NPPB
- concentration (antagonist sensitivity of channel/transporter) (VRAC): 40 to 100 µM

Molecule: O=C(O)c1cccnc1Nc1cccc(C(F)(F)F)c1 [NFA, niflumic acid]
- concentration (antagonist sensitivity of channel/transporter) (CaCC): 50 to 100 µM

Molecule: CCCCNc1cc(C(=O)O)cc(S(N)(=O)=O)c1Oc1ccccc1 [Bumetanide, bumetanide]
- Ki (NKCC1): ~0.1 µM
- Ki (KCC2): 25 to 50 µM
